{
  "source": "patent US20210371817A1",
  "about": "“COMPOSITIONS AND METHODS FOR PRECISE PATTERNING OF POSTERIOR NEUROECTODERM FROM HUMAN PLURIPOTENT STEM CELLS” (WISCONSIN ALUMNI RESEARCH FOUNDATION, priority 2013, published 2021)",
  "key": {"[1]": {"test_system": "H9 hESCs", "assay": "HOX, OTX2 and T gene expression by RT-PCR/qPCR during hESC differentiation with morphogens", "format": "cell-based, human", "conditions": "neuromesodermal state", "method": "hPSC differentiation. hPSCs were washed once with phosphate-buffered saline (PBS; Invitrogen), dissociated with ACCUTASE® (Invitrogen) for 3 min, and collected by centrifugation. hPSCs were then seeded onto VTN-NC-coated plates in E8 medium containing 10 μM ROCK inhibitor (Y27632; R&D Systems). Seeding density was 2×10^5 cells/cm^2. The following day, the cells were switched to E6 medium (same composition as E8 medium minus FGF2 and TGFβ 1). Morphogen treatments were then carried out according to the figures in the text. Cells were supplemented with FGF8b (100-200 ng/ml; Peprotech), CHIR99021 (3-6 μM; Tocris), and/or RA (3 μM; Sigma).\nReverse transcriptase polymerase chain reaction (RT-PCR). Total RNA was extracted from cells using TRIZOL® reagent (Invitrogen) according to the manufacturer's instructions. RNA was then subjected to reverse-transcription using a Thermoscript™ RT-PCR kit (Invitrogen) in a 20 μL mixture according to the manufacturer's instructions. The resulting cDNA was then amplified in a 25 μL mixture containing 10×PCR buffer, 0.2 mM dNTP, 1.5 mM MgCl2, 0.5 μM of each primer, and 1 U Taq DNA polymerase (Invitrogen). Amplified products were resolved on 2% agarose gels containing SYBR Safe (Invitrogen) and visualized with a VersaDoc (BioRad). Primer sequences can be found in Table 3. All amplifications were carried out for 35 cycles. HOXC5 and HOXC6 were amplified at 58° C., all others with an annealing temperature of 55° C.\nPropagation and differentiation of neuromesodermal progenitors. H9 hESCs (passage 25-45), H9 ishcat2 hESCs (passage 33-43), and IMR90-4 iPSCs (passage 31-40) were maintained in E8 medium on MATRIGEL© (BD Biosciences) as previously described. To initiate differentiation, hPSCs were passaged with ACCUTASE© (Life Technologies) onto vitronectin (VTN-NC)-coated plates at a density of 1×10^5 cells/cm^2 as previously described. The following day, cells were changed to E6 medium. 24 h later, cells were changed to E6 medium containing 200 ng/ml FGF8b (Peprotech). 24 h later, cells were washed once with 2 ml PBS, treated with ACCUTASE® for 2 min, and removed from the surface by gentle pipetting. After collection by centrifugation, cells were gently resuspended in E6 medium containing 200 ng/ml FGF8b and CHIR99021 (CHIR, concentration varied depending on cell line; Tocris) and re-seeded on VTN-NC-coated plates at a density of 1.5×10^5 cells/cm^2. Medium was not changed until 48 h after passaging. This passaging process was repeated on day 3 of CHIR 99021 treatment (re-seed density of 1.2×10^5 cells/cm^2) if extended neuromesodermal propagation was required, and 50 ng/ml GDF11 (Peprotech) was added on day 4 of CHIR 99021 treatment to initiate lumbar patterning. Cells were changed to E6 medium containing 1 μM retinoic acid (RA; Sigma) to facilitate neural transition.\nqPCR. Total RNA was extracted from cultured cells using TRIZOL® (Life Technologies) according to the manufacturer's instructions. After isolation, 2-5 μg of total RNA was immediately subjected to reverse transcription using the Thermoscript™ RT-PCR kit (Life Technologies) in a 20 μL reaction according to the manufacturer's instructions. […] For all experiments, ΔΔCt values for each gene were calculated relative to ribosomal protein S18 (RPS18) RNA levels and converted to fold difference assuming 100% primer efficiency, then normalized to maximum expression levels as indicated in each figure legend. […]"}, "[2]": {"test_system": "neuromesodermal cells", "assay": "Pax6 and HoxD10 expression after GDF11 with or without dorsomorphin, then RA", "format": "cell-based, human", "conditions": "GDF11 present in the neuromesodermal morphogen cocktail", "excerpt": "(FIG. 7A) Timeline of differentiation. (FIG. 7B) qPCR assessment of lumbar/sacral gene expression at day 12. A minimum concentration of GDF11 is required to activate HoxD10 and HoxA11. Each gene is normalized to the maximum GDF11 dose. Error bars are standard deviation calculated from duplicate reactions. (FIG. 7C) Expression of Pax6 in response to increased GDF11 concentrations. Data were collected by flow cytometry and represented as mean±standard deviation calculated from two biological replicates. Sox2 was uniformly expressed regardless of GDF11 treatment (data not shown). […] Grey histograms, IgG control; Red histograms, Pax6. Data are representative of two biological replicates. […] Percentages were quantified as HoxD10 labeling relative to DAPI-stained nuclei (>2500 total cells counted per sample). Scale bars, 100 μm\nAfter neural tube closure in vivo, opposing gradients of TGFβ and SHH signaling produce distinct dorsal and ventral domains from which sensory neurons, interneurons, and motor neurons arise. Pax6, which has been identified as a neuroectoderm fate determinant, is expressed throughout most of the neural tube but is absent from the most dorsal and ventral domains. […] The ability of GDF11 to control rostral/caudal patterning is mediated by signaling via ALK5 and activation of the SMAD2/3 complex. […]"}},
  "data": [
    {"substance": "GDF11: Growth differentiation factor 11, a TGFβ family member", "values": [
      {"measurement": "Expression of hindbrain/cervical genes HOXA4, HOXB4, HOXC6", "setting": "[1]; data not shown", "result": "did not repress"},
      {"measurement": "Activation of lumbar and sacral HOX paralogs", "setting": "[1]; qPCR, GDF11 50 ng/ml", "result": "necessary for robust activation of lumbar (HOX10) and sacral (HOX11) paralogs"},
      {"measurement": "Pax6 expression after RA", "setting": "[2]", "result": "decreased"}
    ]}
  ]
}
